Results as given in the supplement of paper PMC5908809.

Legend:
[1] = tested on: normal NK cells expanded with K562-aAPC; test: drug sensitivity score (DSS) (DSS units); higher = more sensitive; extreme values may be limits of the assay; conditions: 72 h; IL-2 2.5 ng/mL
Description: (§1)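 Drug sensitivity and resistance testing on K562-aAPC-expanded normal NK cells: 5 concentrations (10-fold steps over a 10,000-fold range), 72 h at 37 °C, viability by CellTiter-Glo normalised to DMSO and benzethonium chloride controls; DSS from the fitted curve.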

NK-YS (IL-2 2.5 ng/mL) [2] = test: as above; conditions: 72 h
KHYG-1 (IL-2 2.5 ng/mL) [3] = test: as above; conditions: 72 h
[4] = tested on: normal primary NK cells, pool 1 (3 donors), resting (IL-2 0 ng/mL); test: as above; conditions: 72 h
[5] = tested on: normal primary NK cells, pool 1 (3 donors) (IL-2 2.5 ng/mL); test: as above; conditions: 72 h
YT (IL-2 2.5 ng/mL) [6] = test: as above; conditions: 72 h
DERL-7 (IL-2 2.5 ng/mL) [7] = test: as above; conditions: 72 h
KAI3 (IL-2 2.5 ng/mL) [8] = test: as above; conditions: 72 h
NKL (IL-2 2.5 ng/mL) [9] = test: as above; conditions: 72 h
SNK-6 (IL-2 2.5 ng/mL) [10] = test: as above; conditions: 72 h
IMC-1 (IL-2 20 ng/mL) [11] = test: as above; conditions: 72 h
[12] = tested on: normal primary NK cells, pool 3 (3 donors) (IL-2 2.5 ng/mL); test: as above; conditions: 72 h
NK-92 (IL-2 2.5 ng/mL) [13] = test: as above; conditions: 72 h
[14] = tested on: normal primary NK cells, pool 2 (3 donors) (IL-2 2.5 ng/mL); test: as above; conditions: 72 h
NK-YS (IL-2 2.5 ng/mL) [15] = test: percent inhibition of viability; higher = more inhibition; conditions: 72 h
KHYG-1 (IL-2 2.5 ng/mL) [16] = test: as above; conditions: 72 h
[17] = tested on: normal primary NK cells, pool 1 (3 donors), resting (IL-2 0 ng/mL); test: as above; conditions: 72 h
[18] = tested on: normal primary NK cells, pool 1 (3 donors) (IL-2 2.5 ng/mL); test: as above; conditions: 72 h
YT (IL-2 2.5 ng/mL) [19] = test: as above; conditions: 72 h
DERL-7 (IL-2 2.5 ng/mL) [20] = test: as above; conditions: 72 h
KAI3 (IL-2 2.5 ng/mL) [21] = test: as above; conditions: 72 h
NKL (IL-2 2.5 ng/mL) [22] = test: as above; conditions: 72 h
SNK-6 (IL-2 2.5 ng/mL) [23] = test: as above; conditions: 72 h
IMC-1 (IL-2 20 ng/mL) [24] = test: as above; conditions: 72 h
[25] = tested on: normal primary NK cells, pool 3 (3 donors) (IL-2 2.5 ng/mL); test: as above; conditions: 72 h
NK-92 (IL-2 2.5 ng/mL) [26] = test: as above; conditions: 72 h
[27] = tested on: normal primary NK cells, pool 2 (3 donors) (IL-2 2.5 ng/mL); test: as above; conditions: 72 h
[28] = tested on: normal NK cells expanded with K562-aAPC; test: as above; conditions: 72 h, IL-2 2.5 ng/mL
Description: as §1

COc1ccc(S(=O)(=O)Nc2cccnc2Nc2ccc(O)cc2)cc1 [ABT-751] (max concentration tested 10000 nM)
Conditions | drug sensitivity score
DERL-7 (IL-2 2.5 ng/mL) [7] | 18.2
IMC-1 (IL-2 20 ng/mL) [11] | 18.5
KAI3 (IL-2 2.5 ng/mL) [8] | 13.8
KHYG-1 (IL-2 2.5 ng/mL) [3] | 20.6
NK-92 (IL-2 2.5 ng/mL) [13] | 21.4
NK-YS (IL-2 2.5 ng/mL) [2] | 16.3
NKL (IL-2 2.5 ng/mL) [9] | 15.4
SNK-6 (IL-2 2.5 ng/mL) [10] | 21.9
YT (IL-2 2.5 ng/mL) [6] | 20.3
[1] | 11.1
[4] | 5.02
[5] | 0.04
[12] | 1.19
[14] | 0.52

percent inhibition of viability [%]
Conditions | 1 nM | 10 nM | 100 nM | 1000 nM | 10000 nM
DERL-7 (IL-2 2.5 ng/mL) [20] | 5.8 | 5.64 | 3.05 | 99.1 | 99
IMC-1 (IL-2 20 ng/mL) [24] | 1.24 | 2.22 | 4.35 | 99.6 | 99.6
KAI3 (IL-2 2.5 ng/mL) [21] | 7.18 | 10.3 | 18.4 | 62.9 | 74.9
KHYG-1 (IL-2 2.5 ng/mL) [16] | -0.83 | 2.36 | 14.9 | 104 | 104
NK-92 (IL-2 2.5 ng/mL) [26] | 4.6 | 3.35 | 37.3 | 92.8 | 91.3
NK-YS (IL-2 2.5 ng/mL) [15] | -0.79 | 0.15 | 23.9 | 70.5 | 71.2
NKL (IL-2 2.5 ng/mL) [22] | -0.28 | -14.8 | -13.9 | 90.3 | 83.4
SNK-6 (IL-2 2.5 ng/mL) [23] | 3.22 | 10.5 | 50.7 | 81.7 | 89.2
YT (IL-2 2.5 ng/mL) [19] | 3.24 | 3.8 | 13.6 | 100 | 96.2
[17] | 1.2 | -5.61 | -12 | 16.9 | 49.5
[18] | -9.52 | -12.6 | -7.29 | 0.64 | 11.6
[25] | 4.41 | 1.96 | 4.78 | 13.2 | 16.7
[27] | 0.28 | 3.85 | 0.94 | 8.44 | 14.7
[28] | 2.34 | 4.2 | 3.33 | 57.7 | 58.5

O=C(NC1CCNCC1)c1n[nH]cc1NC(=O)c1c(Cl)cccc1Cl [AT7519] (max concentration tested 10000 nM)
Conditions | drug sensitivity score
DERL-7 (IL-2 2.5 ng/mL) [7] | 17.3
IMC-1 (IL-2 20 ng/mL) [11] | 17.4
KAI3 (IL-2 2.5 ng/mL) [8] | 16.3
KHYG-1 (IL-2 2.5 ng/mL) [3] | 12.7
NK-92 (IL-2 2.5 ng/mL) [13] | 9.5
NK-YS (IL-2 2.5 ng/mL) [2] | 18.9
NKL (IL-2 2.5 ng/mL) [9] | 20.3
SNK-6 (IL-2 2.5 ng/mL) [10] | 9.33
YT (IL-2 2.5 ng/mL) [6] | 15.6
[1] | 17.5
[4] | 15.1
[5] | 18.6
[12] | 16.8
[14] | 17.2

percent inhibition of viability [%]
Conditions | 1 nM | 10 nM | 100 nM | 1000 nM | 10000 nM
DERL-7 (IL-2 2.5 ng/mL) [20] | 3.68 | -3.37 | -6.6 | 99.2 | 100
IMC-1 (IL-2 20 ng/mL) [24] | 5.46 | 1.26 | -0.14 | 96.8 | 96.4
KAI3 (IL-2 2.5 ng/mL) [21] | 1.05 | -1.69 | 4.7 | 86.2 | 94
KHYG-1 (IL-2 2.5 ng/mL) [16] | -2.18 | -4.7 | 1.67 | 61.9 | 96.3
NK-92 (IL-2 2.5 ng/mL) [26] | -10.5 | -1.16 | -2.58 | 32.2 | 90.7
NK-YS (IL-2 2.5 ng/mL) [15] | -2.23 | -4.04 | 9.45 | 96.6 | 93.7
NKL (IL-2 2.5 ng/mL) [22] | 1.32 | 5.88 | 13.8 | 102 | 97.5
SNK-6 (IL-2 2.5 ng/mL) [23] | 6.43 | -7.68 | 0.7 | 50.8 | 48.4
YT (IL-2 2.5 ng/mL) [19] | 0.46 | -3.64 | 6.82 | 79.9 | 97
[17] | -42.2 | -37.4 | -20.6 | 90.1 | 89.6
[18] | -13.5 | -8.03 | 6.78 | 96.9 | 97.9
[25] | -13.9 | -11.2 | -5.85 | 94.7 | 98.8
[27] | -5.51 | -3.1 | 0.18 | 95.2 | 95.8
[28] | -3.7 | 0.1 | -4.47 | 99.1 | 100
